Data published in patent US11014934B2, “Antiseptic drug” (AO “TATKHIMFARMPREPARATY”, priority 2017, dated 2021).
Read-outs that look alike come from different tables or passages of the source.

Assays:
[1] = test system: Aspergillus fumigates RCPF F-1248/880; test: Antifungal activity, 2-fold serial dilutions in Saburo glucose broth; type: cell-based, Asp. fumigates; settings: for MIC: Aspergillus
Experimental: (§1) The study of the antifungal activity of compound I in vitro was carried out in accordance with [Metodicheskiye rekomendatsii No 2. Mikologicheskoye issledovaniye ob″yektov okruzhayushchey sredy i opredeleniye protivogribkovoy aktivnosti razlichnykh veshchestv.—GOU DPO SPbMAPO NII meditsinskoy mikologii im. P. N. Kashkina, GBOU VPO SZGMU im. I. I. Mechnikova Minzdrava. SPb.: Izd. Dom SPbMAPO.—2008.—S. 16. Methodological recommendations No 2. Mycological examination of environmental objects and determination of antifungal activity of various substances.—State Educational Institution of St. Petersburg Medical Academy of Postgraduate Education with Scientific Research Institute of Medical Mycology named after P. N. Kashkin, State Educational Institution of Higher Professional Education North-West State Medical University named after I. I. Mechnikov, Ministry of Health. St. Petersburg.:: Publishing House SPbMAPO.—2008.—P. 16].
(§2) The study of the antifungal activity of substances in vitro was carried out in a liquid nutrient medium (Saburo glucose broth) in biological tubes by the method of 2-fold serial dilutions. In test tubes, three parallel series of dilutions of the test substance were prepared in the following way.
(§3) Saburo's liquid broth was sterilely poured in 3 ml into each tube; 4.5 ml was poured into the first tube of the row. A total of 14 tubes were used in a row; of which the last was a control one. […] The growth of cultures was initially assessed visually, comparing the growth of microorganisms in the presence of test compounds with the growth of culture without them. […] The first lowest concentration of the substance (from a series of consecutive dilutions), where the growth of fungi was suppressed or not visually determined, was considered the minimum inhibitory concentration (MIC).
(§4) For the preparation of inoculum, were respectively used pure (2-5) days cultures of yeast and mycelial fungi, grown on Saburo's dense nutrient broth. […] The inoculum was used within 15 minutes after preparation; the purity of the fungal strains was monitored before each experiment. […]

[2] = test system: Bovine rhinotracheitis virus (herpes virus family), vaccine strain TK-A (VIEV)-V2; test: Antiviral (virulicidal) activity, cytopathogenic effect on LCE cells; type: cell-based, IBR virus; settings: for destruction of the monolayer, drug with the virus: virus incubated with drug one hour, LCE cells 72 hours; for concentration with virulicidal effect: herpes virus type 1, infectious titer 6.0 Ig TCD50/ml
Experimental: The study of the antiviral activity of compound I in vitro was carried out in accordance with [D. L. Kuznetsov, A. YA. Samuylenko, V. I. Belousov Immunofermentnaya diagnostika IRT KRS. Veterinariya.—2002.—No 3.—S. 22-25. D. L. Kuznetsov, A. Y. ? Samuylenko, V. I. Belousov Enzyme-linked immunosorbent assay for cattle IBR. Veterinary medicine.—2002.—No 3.—P. 22-25].
Cells of a light cow embryo (LCE) are obtained from the Federal State Budgetary Institution “All-Russian Institute of Experimental Veterinary Medicine”, Moscow. Bovine rhinotracheitis virus (herpes virus family), vaccine strain “TK-A (VIEV)-V2” was obtained from the Federal State Budgetary Institution “All-Russian Institute of Experimental Veterinary Medicine”, Moscow.
Evaluation of the antiviral activity of compound I was carried out in an appropriate medium on LCE cells that were infected with the IBR virus belonging to the type 1 herpes virus family.
The virus was incubated in the presence of compound I in a culture medium at 37° C. for one hour at various concentrations; miramistin and benzalkonium chloride served as control preparations. After incubation of the virus with substances, it was added to the cell culture, which was then incubated at 37° C., 5% CO2 for 72 hours.
Evaluation of the cytopathogenic effect was carried out visually by the state of the cell monolayer as compared with the controls (virus without incubation with the drug, the studied drug concentrations without the virus). The virus titer was calculated using the method of Reed-Muench in the modification of Ashmarin and expressed in Ig TCD50/ml.

[3] = test system: Rhizopus oryzae RCPF F-1537/1722; test: Antifungal activity, 2-fold serial dilutions in Saburo glucose broth; type: cell-based, Rh. oryzae; settings: for MIC: read-out: The value of the MIC
Experimental: as §1, §2, §3, §4

With “alkyldimethyl(phenylmethyl) ammonium chloride [Benzalconium chloride]” the “The value of the MIC” value ([1]; Asp. fumigates RCPF F-l248/880) was 15.6 µg/mL, the “destruction of the monolayer, drug with the virus” value (shortened to “destruction of the monolayer, drug”) ([2]; 150 μg/ml) was “++ (++ - −40-70% destruction of the monolayer)” and the “destruction of the monolayer, drug” value ([2]; 200 μg/ml) was “− (−0-10% destruction of the monolayer)”. The “The value of the MIC” value ([3]; Rh. nigricans RCPFF-l537/1722) was 15.6 µg/mL.
For `CCCCCCCCCCCC[N+](C)(C)Cc1cnc(C[N+](C)(C)CCCCCCCCCCCC)c2c1COC(CC)O2` (stereo not drawn) [Compound I, 5,8-(Bis(methylene (N, N-dimethyl-N-dodecylammonium))-2-ethyl-4H-[1,3]dioxino [4,5-c]pyridiniumdichloride], the MIC ([1]; RCPFF1248/880, Asp. fumigates RCPF F-l248/880, read-out: The value of the MIC) was 62.5 µg/mL, the “destruction of the monolayer, drug” value ([2]; 150 μg/ml) was “++ (++ - −40-70% destruction of the monolayer)” and the “destruction of the monolayer, drug” value ([2]; 200 μg/ml) was “− (−0-10% destruction of the monolayer)”. For the same compound, the “concentration with virulicidal effect” value [2] was 200 µg/mL and the MIC ([3]; Rh. nigricans RCPFF-l537/1722) was 62.5 µg/mL.
For `CCCCCCCCCCCCCC(=O)NCCC[N+](C)(C)Cc1ccccc1.O.[Cl-]` [Miramistin, benzyldimethyl [3-(myristoylamino)propyl]-ammonium chloride monohydrate], the MIC ([1]; RCPFF1248/880, read-out: The value of the MIC) was 31.2 µg/mL, the “destruction of the monolayer, drug” value ([2]; 100 μg/ml) was “+++ (+++ - 90-100% destruction of the monolayer)” and the “destruction of the monolayer, drug” value ([2]; 150 μg/ml) was “− (−0-10% destruction of the monolayer)”. The “destruction of the monolayer, drug” value ([2]; 200 μg/ml) was “− (−0-10% destruction of the monolayer)”, the “concentration with virulicidal effect” value [2] was 150 µg/mL and the MIC [3] was 62.5 µg/mL.
